Patent publication US20250101039A1, “RIFAMYCIN DERIVATIVES FOR THE TREATMENT OF DISEASES” (priority 2022, published 2025)
Converted amounts (≈) assume the structure as drawn.

Experiments:
[1] = tested on: Staphylococcus epidermidis (strain ATCC 12228); assay: MIC by broth microdilution, S. epidermidis; assay type: cell-based; conditions: strain ATCC 12228, cation adjusted Mueller Hinton broth
[2] = tested on: H. influenzae (strain ATCC 49247); assay: MIC by broth microdilution, H. influenzae; assay type: cell-based, Hemophilus influenzae; conditions: strain ATCC 49247, Hemophilus test medium broth
[3] = tested on: M. abscessus (strain ATCC 19977); assay: MIC by broth microdilution, M. abscessus; assay type: cell-based, Mycobacterium abscessus; conditions: strain ATCC 19977, Middlebrook 7H9 broth + ADC
[4] = tested on: S. pneumoniae (strain ATCC 49619); assay: MIC by broth microdilution, S. pneumoniae; assay type: cell-based, Streptococcus pneumoniae; conditions: strain ATCC 49619, cation adjusted Mueller Hinton broth + 5% laked horse blood
[5] = tested on: S. aureus; assay: MIC by broth microdilution, S. aureus; assay type: cell-based, Staphylococcus aureus; conditions: cation adjusted Mueller Hinton broth, 35° C. 20 hours
[6] = tested on: A. baumannii RpoB H535L; assay: microbe, parasite or virus in culture; assay type: cell-based, Acinetobacter baumannii; conditions: Table 4, RPMI + FCS
[7] = tested on: M. smegmatis (strain ATCC 700084); assay: MIC, M. smegmatis (BacTiter-Glo); assay type: cell-based, Mycobacterium smegmatis; conditions: strain ATCC 700084, Middlebrook 7H9 + ADC, 90% growth inhibition, 20 hours
[8] = tested on: Enterococcus faecium (strain NCTC 12204); assay: MIC by broth microdilution, E. faecium; assay type: cell-based; conditions: strain NCTC 12204, cation adjusted Mueller Hinton broth
[9] = tested on: M. tuberculosis (H37Rv strain ATCC 27294); assay type: cell-based, Mycobacterium tuberculosis
[10] = tested on: A. baumannii RpoB H535Q; assay: microbe, parasite or virus in culture; assay type: cell-based, Acinetobacter baumannii; conditions: Table 4, RPMI + FCS
[11] = tested on: A. baumannii; assay: MIC by broth microdilution, A. baumannii (WT); assay type: cell-based, Acinetobacter baumannii
[12] = tested on: Enterococcus faecalis (strain ATCC 51575); assay: MIC by broth microdilution, E. faecalis; assay type: cell-based; conditions: strain ATCC 51575, cation adjusted Mueller Hinton broth
[13] = tested on: A. baumannii RpoB H535C; assay: microbe, parasite or virus in culture; assay type: cell-based, Acinetobacter baumannii; conditions: Table 4, RPMI + FCS
[14] = tested on: S. pyogenes (strain IHMA 1117021); assay: MIC by broth microdilution, S. pyogenes; assay type: cell-based, Streptococcus pyogenes; conditions: strain IHMA 1117021, cation adjusted Mueller Hinton broth + 5% laked horse blood

## CO[C@H]1/C=C/O[C@@]2(C)Oc3c(C)c(O)c4c(c3C2=O)C2=NC3(NC2=C(NC(=O)/C(C)=C\C=C\[C@H](C)[C@H](O)[C@@H](C)[C@@H](O)[C@@H](C)[C@H](OC(C)=O)[C@@H]1C)C4=O)C1CN(C)CC3CN(C)C1 (stereo partly drawn) [Compound 18]
[1]
  MIC S. epidermidis: < 0.002 µg/mL
[2]
  MIC H. influenzae: 0.125 µg/mL (≈ 0.145 µM)
[3]
  MIC M. abscessus: 32 µg/mL
[4]
  MIC S. pneumoniae: < 0.002 µg/mL
[5]
  MIC S. aureus: 0.016 µg/mL (≈ 0.0186 µM)
[6]
  A. baumannii MIC, RpoB H535L: 4 µg/mL
[7]
  MIC M. smegmatis: 1.11 µg/mL
[8]
  MIC E. faecium: 0.125 µg/mL (≈ 0.145 µM)
[9]
  MIC M. tuberculosis: 0.01 µg/mL (≈ 0.0116 µM)
[10]
  A. baumannii MIC, RpoB H535Q: 0.03 µg/mL
[11]; RPMI medium supplemented with 10% FCS, 35° C. 20 hours
  MIC A. baumannii: 0.008 µg/mL (≈ 0.0093 µM)
[11]; Table 4, RPMI + FCS
  A. baumannii MIC, WT: 0.008 µg/mL
[12]
  MIC E. faecalis: 2 µg/mL (≈ 2.33 µM)
[13]
  A. baumannii MIC, RpoB H535C: 0.25 µg/mL
[14]
  MIC S. pyogenes: < 0.002 µg/mL
